Measurements published in US7579368B2, “Cis-imidazolines” (Hoffman-La Roche Inc., priority 2005, dated 2009).
Structures can show the parent of a compound that is named as a salt.

biological target: interaction between p53 and MDM2 proteins (recombinant GST-tagged MDM2 and p53 peptide) (Homo sapiens, UniProt Q00987); test: HTRF assay of inhibition of the p53-MDM2 interaction (GST-MDM2 / biotinylated p53 peptide); type: binding; settings: 90 nM biotinylated p53 peptide, 160 ng/ml GST-MDM2, 37° C. 1 h
Description: The ability of the compounds to inhibit the interaction between p53 and MDM2 proteins was measured by an HTRF (homogeneous time-resolved fluorescence) assay in which recombinant GST-tagged MDM2 binds to a peptide that resembles the MDM2-interacting region of p53 (Lane et al.). Binding of GST-MDM2 protein and p53-peptide (biotinylated on its N-terminal end) is registered by the FRET (fluorescence resonance energy transfer) between Europium (Eu)-labeled anti-GST antibody and streptavidin-conjugated Allophycocyanin (APC).
Test is performed in black flat-bottom 384-well plates (Costar) in a total volume of 40 uL containing: 90 nM biotinylated peptide, 160 ng/ml GST-MDM2, 20 nM streptavidin-APC (PerkinElmerWallac), 2 nM Eu-labeled anti-GST-antibody (PerkinElmerWallac), 0.2% bovine serum albumin (BSA), 1 mM dithiothreitol (DTT) and 20 mM […] (TBS) buffer as follows: Add 10 uL of GST-MDM2 (640 ng/ml working solution) in reaction buffer to each well. Add 10 uL diluted compounds (1:5 dilution in reaction buffer) to each well, mix by shaking. Add 20 uL biotinylated p53 peptide (180 nM working solution) in reaction buffer to each well and mix on shaker. Incubate at 37° C. for 1 h. Add 20 uL streptavidin-APC and Eu-anti-GST antibody mixture (6 nM Eu-anti-GST and 60 nM streptavidin-APC working solution) in TBS buffer with 0.2% BSA, shake at room temperature for 30 minutes and read using a TRF-capable plate reader at 665 and 615 nm (Victor 5, Perkin ElmerWallac). If not specified, the reagents were purchased from Sigma Chemical Co.

Chain of interaction between p53 and MDM2 proteins (recombinant GST-tagged MDM2 and p53 peptide) (Q00987 whole entry): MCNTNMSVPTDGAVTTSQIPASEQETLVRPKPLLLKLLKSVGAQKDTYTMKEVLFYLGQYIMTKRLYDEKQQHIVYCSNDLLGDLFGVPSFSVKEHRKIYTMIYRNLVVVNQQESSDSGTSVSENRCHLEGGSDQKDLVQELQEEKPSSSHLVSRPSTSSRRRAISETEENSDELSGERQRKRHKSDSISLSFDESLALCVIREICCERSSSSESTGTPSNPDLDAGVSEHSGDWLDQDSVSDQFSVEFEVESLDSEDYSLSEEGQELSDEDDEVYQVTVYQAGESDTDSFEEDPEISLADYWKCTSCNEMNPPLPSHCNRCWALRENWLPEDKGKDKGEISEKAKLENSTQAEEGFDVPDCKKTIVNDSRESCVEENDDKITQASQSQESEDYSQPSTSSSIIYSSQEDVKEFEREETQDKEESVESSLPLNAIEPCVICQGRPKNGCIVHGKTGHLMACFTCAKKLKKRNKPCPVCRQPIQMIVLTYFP

**Q.** Which IC50 does the source give for `CCOc1cc(Cl)c(S(N)(=O)=O)cc1C1=N[C@@H](c2ccc(Cl)cc2)[C@@H](c2ccc(Cl)cc2)N1C(=O)N1CCN(CC(=O)N2CCOCC2)CC1` [Example 34, 5-{(4S,5R)-4,5-Bis-(4-chloro-phenyl)-1-[4-(2-morpholin-4-yl-2-oxo-ethyl)-piperazine-1-carbonyl]-4,5-dihydro-1H-imidazol-2-yl}-2-chloro-4-ethoxy-benzenesulfonamide] here?
**A.** Its IC50 is 9 nM.

**Q.** `CCOc1cc(C#N)ccc1C1=N[C@@H](c2ccc(Cl)cc2)[C@@H](c2ccc(Cl)cc2)N1C(=O)N1CCN(CCO)CC1` [Example 63, 4-{(4S,5R)-4,5-Bis-(4-chloro-phenyl)-1-[4-(2-hydroxy-ethyl)-piperazine-1-carbonyl]-4,5-dihydro-1H-imidazol-2-yl}-3-ethoxy-benzonitrile] was tested. Which IC50 did it give?
**A.** The IC50 was 9 nM.

**Q.** Which IC50 does the source give for `CCOc1ccc(S(=O)(=O)N(CCOC)CCOC)cc1C1=NC(c2ccc(Cl)cc2)C(c2ccc(Cl)cc2)N1C(=O)N1CCNC(=O)C1` (stereo not shown) [Example 105, 3-[4,5-Bis-(4-chloro-phenyl)-1-(3-oxo-piperazine-1-carbonyl)-4,5-dihydro-1H-imidazol-2-yl]-4-ethoxy-N,N-bis-(2-methoxy-ethyl)-benzenesulfonamide] here?
**A.** The IC50 was 57 nM.

**Q.** With `CCOc1ccc(S(=O)(=O)NC(C)COC)cc1C1=NC(c2ccc(Cl)cc2)C(c2ccc(Cl)cc2)N1C(=O)N1CCN(CC(=O)NC)CC1` (stereo not shown) [Example 130, 2-(4-{4,5-Bis-(4-chloro-phenyl)-2-[2-ethoxy-5-(2-methoxy-1-methyl-ethylsulfamoyl)-phenyl]-4,5-dihydro-imidazole-1-carbonyl}-piperazin-1-yl)-N-methyl-acetamide] as the compound, how does the IC50 read?
**A.** The IC50 was 57 nM.

**Q.** Which IC50 does the source give for `CCOc1cc(Cl)c(S(=O)(=O)N2CCCC2)cc1C1=N[C@@H](c2ccc(Cl)cc2)[C@@H](c2ccc(Cl)cc2)N1C(=O)N1CCN(CCS(C)(=O)=O)CC1` [Example 174, [(4S,5R)-2-[4-Chloro-2-ethoxy-5-(pyrrolidine-1-sulfonyl)-phenyl]-4,5-bis-(4-chloro-phenyl)-4,5-dihydro-imidazol-1-yl]-[4-(2-methanesulfonyl-ethyl)-piperazin-1-yl]-methanone hydrochloride] here?
**A.** Its IC50 is 5 nM.

**Q.** With `CCOc1cc(Cl)c(S(=O)(=O)N2CCCCC2)cc1C1=N[C@@H](c2ccc(Cl)cc2)[C@@H](c2ccc(Cl)cc2)N1C(=O)N1CCN(CC(=O)N2CCOCC2)CC1` [Example 175, 2-{4-[(4S,5R)-2-[4-Chloro-2-ethoxy-5-(piperidine-1-sulfonyl)-phenyl]-4,5-bis-(4-chloro-phenyl)-4,5-dihydro-imidazole-1-carbonyl]-piperazin-1-yl}-1-morpholin-4-yl-ethanone hydrochloride] as the compound, how does the IC50 read?
**A.** The IC50 was 5 nM.

**Q.** How did the IC50 turn out when `CCOc1cc(Cl)c(C#N)cc1C1=N[C@@H](c2ccc(Cl)cc2)[C@@H](c2ccc(Cl)cc2)N1C(=O)N1CCNC(=O)C1` [Example 234, 5-[(4S,5R)-4,5-Bis-(4-chloro-phenyl)-1-(3-oxo-piperazine-1-carbonyl)-4,5-dihydro-1H-imidazol-2-yl]-2-chloro-4-ethoxy-benzonitrile] was run?
**A.** The IC50 was 150 nM.

**Q.** With `CCOc1cc(N(C(=O)N2CCNC(=O)C2)S(C)(=O)=O)ccc1C1=N[C@@H](c2ccc(Cl)cc2)[C@@H](c2ccc(Cl)cc2)N1C(=O)N1CCNC(=O)C1` [Example 275, N-{4-[(4S,5R)-4,5-Bis-(4-chloro-phenyl)-1-(3-oxo-piperazine-1-carbonyl)-4,5-dihydro-1H-imidazol-2-yl]-3-ethoxy-phenyl}-N-(3-oxo-piperazine-1-carbonyl)-methanesulfonamide] as the compound, how does the IC50 read?
**A.** The IC50 was 310 nM.

**Q.** `CCOc1cc(NC(=O)C(C)(C)C)ccc1C1=N[C@@H](c2ccc(Cl)cc2)[C@@H](c2ccc(Cl)cc2)N1C(=O)N1CCNC(=O)C1` [Example 277, N-{4-[(4S,5R)-4,5-Bis-(4-chloro-phenyl)-1-(3-oxo-piperazine-1-carbonyl)-4,5-dihydro-1H-imidazol-2-yl]-3-ethoxy-phenyl}-2,2-dimethyl-propionamide] was tested. Which IC50 did it give?
**A.** Its IC50 is 160 nM.

**Q.** Which IC50 does the source give for `CCOc1cc(C#CC(C)(C)C)ccc1C1=N[C@@H](c2ccc(Cl)cc2)[C@@H](c2ccc(Cl)cc2)N1C(=O)N1CCN(CC(=O)N2CCOCC2)CC1` [Example 405, 2-(4-{(4S,5R)-4,5-Bis-(4-chloro-phenyl)-2-[4-(3,3-dimethyl-but-1-ynyl)-2-ethoxy-phenyl]-4,5-dihydro-imidazole-1-carbonyl}-piperazin-1-yl)-1-morpholin-4-yl-ethanone hydrochloride] here?
**A.** Its IC50 is 544 nM.
